{"source": "patent US4868203A", "about": "“Bacterial substance and pharmaceutical composition thereof” (Kabushikikaisha Ueno Seiyaku Oyo Kenkyujo, priority 1986, dated 1989)", "key": {"[1]": {"test_system": "Pseudomonas solanacearum NIAES 1418", "assay_type": "cell-based", "conditions": "Pseudomonas solanacearum NIAES 1418 (wilt of solanum)"}, "[2]": {"assay": "Storage life of steamed Chinese noodles (Test Example 5)", "method": "After kneading for 10 minutes. the product was rolled and cut with cutting edge (#10) to give noodles. The resulting noodles were steamed at the temperature higher than 98° C. for 6 minutes, washed with water, packed in polyethylene packages (each weighing 40 g) and heated at 85° C. for 30 minutes. The obtained packages containing Chinese noodles (10 bags/group) were maintained at 30° C. and the change in appearance with time was observed and preservation effect was evaluated according to the following evaluation scale. The values shown in the following Table are averaged evaluation levels of degeneration."}, "[3]": {"assay": "Absorbance by oral administration, absorption and secretion in yellowtail (Test Example 10)", "assay_type": "in vivo", "conditions": "oral 100 mg/kg", "method": "To a cultured yellowtail, UFC-N11 was compulsorily oral-administered at the rate of 100 mg/kg per body weight of fish. The tissue samples were collected 3, 8, and 24 hours later respective in order to determine the concentrations in the tissues."}, "[4]": {"test_system": "Xandomonas campestris PV campestris NIAES 1152", "assay_type": "cell-based", "conditions": "Xandomonas campestris PV campestris NIAES 1152 (black rot)", "method": "(§1) The minimum growth inhibitory concentration (MIC) values of bacterial substance UFC-N11 to various kinds of bacteria determined according to the conventional method were measured in the conventional manner."}, "Pseudomonas aeruginosa": {"test_system": "Pseudomonas aeruginosa", "assay_type": "cell-based", "method": "as §1"}, "[5]": {"test_system": "Staphylococcus aureus 209-P", "assay_type": "cell-based", "method": "as §1"}, "[6]": {"test_system": "Enterobacter cloacae IID977", "assay_type": "cell-based", "method": "as §1"}, "[7]": {"test_system": "Pseudomonas syringae PV lachrymans NIAES 1316", "assay": "Evaluation of activity against the bacterial spot of cucumber (Test Example 3)", "assay_type": "in vivo", "conditions": "50 ppm", "method": "Cucumber(Green tokiwa) was used for the test. Potted cucumber plants (2 leaf stage) were sprayed with sufficient amount of 50 ppm solution of bacterial substance UFC-N11 (dissolved in 0.05% aqueous sodium bicarbonate), air-dried, and spray-inoculated 10^8 /ml suspension of Pseudomonas Syringae PV lachrymans NIAES 1316, cultured on Wakimoto medium for 3 days, on both sides of leaves. For the control, an experiment was carried out using a solution without the substance N11 in the same manner as described above. After inoculation, the plants were maintained at 28° C. for 24 hours and maintained in a glass house until the day of evaluation. Six days after inoculation, percentage of spots area affected on the first and second seed leaf was observed and protection value was calculated according to the following formula: [formula] The experiment was repeated using Cu(OH)2 (Kosaid) 83% wettable powder (produced by Hokko chemical Industry Co. Ltd.) as a positive reference. In this case CaCO3 (Kurefunon) (produced by Shiraishi Calcium) was added (×200) in order to reduce damage."}, "[8]": {"assay": "Preservability of potato salad (Test Example 6)", "conditions": "for Living bacteria: at end of storage life", "method": "Bacterial substance UFC-N11 was added to potato (300 g), carrot (50 g), sliced onion (60 g), sliced cucumber (80 g), salad oil (15 g), vinegar (12. 5 g), NaCl (2 g), pepper (0.05 g) and mayonnaise (100 g) (total: ca 620 g) to prepare potato salad. Test samples (20 g/group) were packed in 200 ml mayonnaise bottles, sealed and examined for the preservability at 30° C. Potato and carrot were boiled and cut into appropriate size before use. The period until emission of a putrid smell is defined as effective storage life. General living bacterial number of samples at that time was also measured."}, "[9]": {"test_system": "Xandomonas campestris PV oryzae H75373", "assay_type": "cell-based"}, "[10]": {"test_system": "Xanthomonas campestris PV citri", "conditions": "for Prevention: sprayed 24 hours after inoculation, 14 days"}, "Edwardssiella tarda 4-1": {"test_system": "Edwardssiella tarda 4-1", "assay": "Minimum growth inhibiting concentration, pathogenic bacteria of fish disease (Test Example 8)", "assay_type": "cell-based", "conditions": "Edwardssiella tarda 4-1 (Edwardsiellosis of eel)", "from_the_text": "(§2) The minimum growth inhibitory concentrations (MIC) of the bacterial substance UFC-N11 against various bacteria were according to conventional procedure the results are as follows: […]"}, "Vibrio anguillarum K-3": {"test_system": "Vibrio anguillarum K-3", "assay": "Minimum growth inhibiting concentration, pathogenic bacteria of fish disease (Test Example 8)", "assay_type": "cell-based", "conditions": "Vibrio anguillarum K-3 (Vibrio disease of young yellowtail)", "from_the_text": "as §2"}, "[11]": {"test_system": "Aeromonas hydrophila IAM108", "assay": "Minimum growth inhibiting concentration, pathogenic bacteria of fish disease (Test Example 8)", "assay_type": "cell-based", "conditions": "Aeromonas hydrophila IAM108 (Aeromonas disease of carp)", "from_the_text": "as §2"}, "Vibrio anguillarum 25-1": {"test_system": "Vibrio anguillarum 25-1", "assay": "Minimum growth inhibiting concentration, pathogenic bacteria of fish disease (Test Example 8)", "assay_type": "cell-based", "conditions": "Vibrio anguillarum 25-1 (Vibrio disease of sweetfish)", "from_the_text": "as §2"}, "[12]": {"test_system": "Flexibacter columnaris V-II", "assay": "Minimum growth inhibiting concentration, pathogenic bacteria of fish disease (Test Example 8)", "assay_type": "cell-based", "conditions": "Flexibacter columnaris V-II (Columnaris disease of eel)", "from_the_text": "as §2"}, "[13]": {"test_system": "Aeromonas salmonicida, MC7503", "assay": "Minimum growth inhibiting concentration, pathogenic bacteria of fish disease (Test Example 8)", "assay_type": "cell-based", "conditions": "MC7503 (Furunculosis of salmonids)", "from_the_text": "as §2"}, "[14]": {"assay": "Storage life of kamaboko, rot-proof property (Test Example 4)", "experimental": "Fish paste was prepared by adding NaCl (2.5%), chemical seasoning (0.8%), starch (5%) and ice water (10%) based on frozen surimi of walleye pollack (4 kg) and cutting by a silent cutter for 10 minutes. Predetermined amount of bacterial substance UFC-N11 based on the resulting fish paste (2 kg) was added and completely mixed in a small mixer for 5 minutes. About 100 g fish paste were enclosed with polyvinylidene chloride film (spread width:45 mm), boiled at 90° C. for 30 minutes, quenched, left overnight and then tested for rot-proof property.\nThe test was conducted as follows. As the complete package products, 10 pieces/group of kamaboko processed by casing method samples and, as the simplified package products, 10 pieces/group prepared by peeling off the casing under sterilized condition, cutting into 2 round slices (thickness: 10 mm) by a sterilized knife and placing in a sterilized plastic Petri dish. were placed in a thermostatic chamber at 30° C. and evaluated by macroscopically observation. The evaluation uses five-level scale shown below. The period until the average evaluation value of 1 is attained is defined as the storage life."}, "Pasteurella piscicida": {"test_system": "Pasteurella piscicida", "assay": "microbe, parasite or virus in culture", "assay_type": "cell-based"}}, "note": "Values joined by “and” are separate entries in the source; they are usually repeats but may differ in a detail not shown here. Equal values may be shown once. Read-outs that look alike come from different tables or passages of the source."}
{"smiles": "CC=CC=CC=CC(=O)NC(CC(=O)NC(C(=O)C1C(=O)NC(=O)C1C)C(C)C)c1ccccc1", "note": "(stereo not shown) [UFC-N11]", "values": [{"measurement": "MIC", "setting": "[1]", "value": 1.56, "unit": "µg/mL"}, {"measurement": "Storage life", "setting": "[2]; 0.1 ppm, pH of product 9.39, 30° C.", "value": 6.0, "unit": "days"}, {"measurement": "Storage life", "setting": "[2]; 1.0 ppm, pH of product 9.41, 30° C.", "value": 8.1, "unit": "days"}, {"measurement": "Storage life", "setting": "[2]; 10 ppm, pH of product 9.40, 30° C.", "value": 10.0, "unit": "days"}, {"measurement": "Storage life", "setting": "[2]; 50 ppm, pH of product 9.38, 30° C.", "value": 16.0, "unit": "days"}, {"measurement": "Storage life", "setting": "[2]; 100 ppm, pH of product 9.41, 30° C.", "value": 20.0, "unit": "days"}, {"measurement": "preservability of the heated and steamed Chinese noodles", "setting": "[2]; upon addition of UFC-N11", "value": "remarkably improved"}, {"measurement": "absorption", "setting": "[3]", "value": "absorbed in concentrations which were equal to or in excess of the anti-bacterial activity"}, {"measurement": "Concentration in tissue, Kidney", "setting": "[3]; 3 hr", "value": 6.55, "unit": "µg/g"}, {"measurement": "Concentration in tissue, Liver", "setting": "[3]; 3 hr", "value": 8.79, "unit": "µg/g"}, {"measurement": "Concentration in tissue, Muscle", "setting": "[3]; 3 hr", "value": 0.96, "unit": "µg/g"}, {"measurement": "Concentration in tissue, Plasma", "setting": "[3]; 3 hr", "value": 2100, "unit": "ng/mL"}, {"measurement": "Concentration in tissue, Kidney", "setting": "[3]; 8 hr", "value": 4.02, "unit": "µg/g"}, {"measurement": "Concentration in tissue, Liver", "setting": "[3]; 8 hr", "value": 5.14, "unit": "µg/g"}, {"measurement": "Concentration in tissue, Muscle", "setting": "[3]; 8 hr", "value": 1.12, "unit": "µg/g"}, {"measurement": "Concentration in tissue, Plasma", "setting": "[3]; 8 hr", "value": 1340, "unit": "ng/mL"}, {"measurement": "Concentration in tissue, Kidney", "setting": "[3]; 24 hr", "value": 1.13, "unit": "µg/g"}, {"measurement": "Concentration in tissue, Liver", "setting": "[3]; 24 hr", "value": 1.36, "unit": "µg/g"}, {"measurement": "Concentration in tissue, Muscle", "setting": "[3]; 24 hr", "value": "< 0.25", "unit": "µg/g"}, {"measurement": "Concentration in tissue, Plasma", "setting": "[3]; 24 hr", "value": "< 125", "unit": "ng/mL"}, {"measurement": "MIC", "setting": "[4]", "value": 0.1, "unit": "µg/mL"}, {"measurement": "MIC", "setting": "Pseudomonas aeruginosa", "value": 50, "unit": "µg/mL"}, {"measurement": "MIC", "setting": "[5]", "value": 1.56, "unit": "µg/mL"}, {"measurement": "MIC", "setting": "[6]", "value": 25, "unit": "µg/mL"}, {"measurement": "Damage", "setting": "[7]; cucumber plants", "value": "Nil"}, {"measurement": "Protection", "setting": "[7]; sprayed before inoculation, 6 days", "value": 36.8}, {"measurement": "Living bacteria", "setting": "[8]; 0.05 ppm", "value": "5.9e+06", "unit": "g⁻¹"}, {"measurement": "Storage life", "setting": "[8]; 0.05 ppm, pH 5.14, 30° C.", "value": 24, "unit": "h"}, {"measurement": "Living bacteria", "setting": "[8]; 0.5 ppm", "value": "2.8e+07", "unit": "g⁻¹"}, {"measurement": "Storage life", "setting": "[8]; 0.5 ppm, pH 5.15, 30° C.", "value": 30, "unit": "h"}, {"measurement": "Living bacteria", "setting": "[8]; 5.0 ppm", "value": "8.1e+06", "unit": "g⁻¹"}, {"measurement": "Storage life", "setting": "[8]; 5.0 ppm, pH 5.15, 30° C.", "value": 43, "unit": "h"}, {"measurement": "Living bacteria", "setting": "[8]; 50 ppm", "value": "5.5e+07", "unit": "g⁻¹"}, {"measurement": "Storage life", "setting": "[8]; 50 ppm, pH 5.16, 30° C.", "value": 56, "unit": "h"}, {"measurement": "MIC", "setting": "[9]", "value": 0.05, "unit": "µg/mL"}, {"measurement": "Prevention", "setting": "[10]; 20 ppm", "value": 26.70, "unit": "%"}, {"measurement": "Prevention", "setting": "[10]; 40 ppm", "value": 33.9, "unit": "%"}, {"measurement": "Damage", "setting": "[10]; in vivo", "value": "nil"}, {"measurement": "MIC", "setting": "Edwardssiella tarda 4-1", "value": 2.5, "unit": "µg/mL"}, {"measurement": "MIC", "setting": "Vibrio anguillarum K-3", "value": 2.5, "unit": "µg/mL"}, {"measurement": "MIC", "setting": "[11]", "value": 5.0, "unit": "µg/mL"}, {"measurement": "MIC", "setting": "Vibrio anguillarum 25-1", "value": 2.5, "unit": "µg/mL"}, {"measurement": "MIC", "setting": "[12]", "value": 0.63, "unit": "µg/mL"}, {"measurement": "MIC", "setting": "[13]", "value": 1.25, "unit": "µg/mL"}, {"measurement": "Storage life, Complete package", "setting": "[14]; 0.01 ppm, pH 7.06, 30° C.", "value": 5.0, "unit": "days"}, {"measurement": "Storage life, simplified package", "setting": "[14]; 0.01 ppm, pH 7.06, 30° C.", "value": 2.5, "unit": "days"}, {"measurement": "Storage life, Complete package", "setting": "[14]; 0.1 ppm, pH 7.06, 30° C.", "value": 7.0, "unit": "days"}, {"measurement": "Storage life, simplified package", "setting": "[14]; 0.1 ppm, pH 7.06, 30° C.", "value": 3.0, "unit": "days"}, {"measurement": "Storage life, Complete package", "setting": "[14]; 1.0 ppm, pH 7.05, 30° C.", "value": 9.0, "unit": "days"}, {"measurement": "Storage life, simplified package", "setting": "[14]; 1.0 ppm, pH 7.05, 30° C.", "value": 4.5, "unit": "days"}, {"measurement": "Storage life, Complete package", "setting": "[14]; 10 ppm, pH 7.05, 30° C.", "value": 14.0, "unit": "days"}, {"measurement": "Storage life, simplified package", "setting": "[14]; 10 ppm, pH 7.05, 30° C.", "value": 7.5, "unit": "days"}, {"measurement": "Storage life, Complete package", "setting": "[14]; 50 ppm, pH 7.04, 30° C.", "value": 18.0, "unit": "days"}, {"measurement": "Storage life, simplified package", "setting": "[14]; 50 ppm, pH 7.04, 30° C.", "value": 9.0, "unit": "days"}, {"measurement": "Storage life, Complete package", "setting": "[14]; 100 ppm, pH 7.06, 30° C.", "value": 24.0, "unit": "days"}, {"measurement": "Storage life, simplified package", "setting": "[14]; 100 ppm, pH 7.06, 30° C.", "value": 12.0, "unit": "days"}, {"measurement": "MIC", "setting": "Pasteurella piscicida", "value": "0.31 µg/mL and 0.16 µg/mL"}, {"measurement": "antibacterial activity", "setting": "Pasteurella piscicida", "value": "excellent antibacterial activity"}]}
